Each structure is given as a SMILES string. Where only a bound is given, the exact number is not on record here.

Drawing on patent US6685617B1, “Inhibitors of α4β1 mediated cell adhesion” (Pharmacia & Upjohn Company, priority 1998, dated 2004), this text covers IC50 for 22 compounds.

The target of this test is T1, α4β1 integrin (Jurkat cell adhesion to immobilized CS-1 derived peptide CLHPGEILDVPST) (Homo sapiens, UniProt P05556+P13612).
T1 construct: 100 μl of Jurkat cells (2.5×10^6 cells/ml) in DMEM plus BSA; host or cells: Jurkat T-cell line
T1 sequence (P13612 34-1032): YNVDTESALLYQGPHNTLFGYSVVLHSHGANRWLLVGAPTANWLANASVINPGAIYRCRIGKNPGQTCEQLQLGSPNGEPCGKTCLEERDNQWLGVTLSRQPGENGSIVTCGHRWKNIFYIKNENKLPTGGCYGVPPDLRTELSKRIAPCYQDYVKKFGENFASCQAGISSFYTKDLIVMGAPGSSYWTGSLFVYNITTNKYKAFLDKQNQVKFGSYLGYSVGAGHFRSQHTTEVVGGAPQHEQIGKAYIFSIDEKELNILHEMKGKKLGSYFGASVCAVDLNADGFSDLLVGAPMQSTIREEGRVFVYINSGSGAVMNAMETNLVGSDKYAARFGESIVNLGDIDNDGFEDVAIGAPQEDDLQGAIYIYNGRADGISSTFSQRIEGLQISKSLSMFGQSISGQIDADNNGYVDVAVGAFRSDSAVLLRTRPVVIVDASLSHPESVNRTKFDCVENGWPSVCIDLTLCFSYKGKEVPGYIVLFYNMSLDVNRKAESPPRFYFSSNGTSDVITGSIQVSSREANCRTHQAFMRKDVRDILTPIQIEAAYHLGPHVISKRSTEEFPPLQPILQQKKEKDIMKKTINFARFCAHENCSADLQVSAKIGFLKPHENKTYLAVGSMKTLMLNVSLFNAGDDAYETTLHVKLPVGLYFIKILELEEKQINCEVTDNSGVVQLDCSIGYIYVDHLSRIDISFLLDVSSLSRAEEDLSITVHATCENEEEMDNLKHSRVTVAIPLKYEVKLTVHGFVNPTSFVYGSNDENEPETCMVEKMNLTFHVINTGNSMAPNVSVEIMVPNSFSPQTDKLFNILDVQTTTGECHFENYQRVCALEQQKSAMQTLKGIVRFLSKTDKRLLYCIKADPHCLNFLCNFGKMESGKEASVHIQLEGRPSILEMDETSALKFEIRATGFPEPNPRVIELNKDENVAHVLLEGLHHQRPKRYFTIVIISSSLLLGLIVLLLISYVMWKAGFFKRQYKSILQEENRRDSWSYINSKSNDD
T1 sequence (P05556 21-798): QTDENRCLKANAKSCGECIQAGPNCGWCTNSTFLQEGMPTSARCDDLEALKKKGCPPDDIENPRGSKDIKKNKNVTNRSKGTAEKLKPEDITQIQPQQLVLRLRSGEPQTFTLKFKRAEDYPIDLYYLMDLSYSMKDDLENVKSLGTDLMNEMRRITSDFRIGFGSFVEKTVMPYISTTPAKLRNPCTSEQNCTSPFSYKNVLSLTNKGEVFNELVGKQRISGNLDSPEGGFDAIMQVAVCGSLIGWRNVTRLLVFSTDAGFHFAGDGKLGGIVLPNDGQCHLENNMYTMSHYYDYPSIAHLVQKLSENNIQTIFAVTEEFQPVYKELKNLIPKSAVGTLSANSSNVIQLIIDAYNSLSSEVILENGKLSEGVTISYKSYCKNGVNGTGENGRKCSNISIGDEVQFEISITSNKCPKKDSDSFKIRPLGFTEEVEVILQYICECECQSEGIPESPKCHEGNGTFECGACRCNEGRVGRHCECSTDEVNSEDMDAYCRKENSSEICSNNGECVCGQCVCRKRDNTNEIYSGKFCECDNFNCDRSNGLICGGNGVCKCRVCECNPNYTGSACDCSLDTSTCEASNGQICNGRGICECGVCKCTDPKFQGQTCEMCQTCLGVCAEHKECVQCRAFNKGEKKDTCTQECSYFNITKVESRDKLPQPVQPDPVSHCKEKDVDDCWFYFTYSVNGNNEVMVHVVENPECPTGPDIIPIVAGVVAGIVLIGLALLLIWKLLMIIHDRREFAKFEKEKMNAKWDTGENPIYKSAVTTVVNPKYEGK
Nature of the test: Jurkat-CS-1 assay. It counts as cell-based. Particulars: Jurkat cells on CS-1 peptide coated plates; read-out: JK/CS-1 (Jurkat CS-1 Assay IC50 value range). On the procedure: The CS-1 derived peptide, CLHPGEILDVPST, and the scrambled control peptide, CLHGPIELVSDPT, were synthesized on a Beckman 990 synthesizer using t-Boc methodology. The peptides were immobilized onto microtiter plates using the heterobifunctional crosslinker 3-(2-pyridyldithio)propionic acid N-hydroxysuccinimide ester (SPDP) as reported by Pierschbacher et al., Proc. Natl. Acad. USA, 80:1224-1227 (1983). Microtiter plates were coated with 20 μg/ml HSA for 2 hr. at room temperature, washed once with PBS and derivatized with 10 μg/ml SPDP for 1 hr. After washing, 100 μl of a 100 μg/ml cysteine containing peptide solution which had been recently dissolved was added to the wells and allowed to crosslink to the plates overnight at 4° C. Unbound peptide was removed from plates by washing with PBS. To block non-reacted sites, the plates are coated with 100 μl of a 2.5 mg/ml BSA solution in PBS for 1 hr. at 37° C. 100 μl of Jurkat cells (2.5×10^6 cells/ml) in DMEM plus BSA (2.5 mg/ml) was mixed with an appropriate concentration of the compound to be tested and the mixture was added to peptide coated dishes and incubated for 1 hr. at 37° C. Generally 100, 20, 5 and 1.25 μM concentrations of the compound were tested.
Following this incubation the plates were washed once with PBS and the attached cells were fixed with 3% paraformaldehyde in PBS and stained with 0.5% toluidine blue in 3.7% formaldehyde. The cells were stained overnight at room temperature and the optical density at 590 nm of toluidine blue stained cells was determined using a vertical pathway spectrophotometer to quantitate attachment (VMAX Kinetic Microplate Reader, Molecular Devices, Menlo Park, Calif.). This procedure is a modification of a previously published method (Cardarelli et al, J. Biol. Chem., 269:18668-18673 (1994) and Cardarelli et al, Proc. Natl. Acad. Sci. USA, 83:2647-2651 (1986)).
As to `CCOC(=O)N1CSC[C@@H]1C(=O)N[C@@H](Cc1ccc(NC(=O)CCc2ccccc2)cc1)C(=O)O` [Example 270, (4S)-4-[[[(1S)-1-Carboxy-2-[4-[(3-phenylpropanoyl)amino]phenyl]ethyl]amino]carbonyl]-3-thiazolidinecarboxylic Acid 3-Ethyl ester], the IC50 was in the range of 50 to 750 nM.

Turning to `CCOC(=O)N1CSC[C@@H]1C(=O)N[C@@H](Cc1ccc(NC(=O)c2c(Cl)cc(Cl)cc2Cl)cc1)C(=O)O` [Example 275, (4S)-4-[[[(1S)-1-Carboxy-2-[4-[(2,4,6-trichlorobenzoyl)amino]phenyl]ethyl]amino]-carbonyl]-3-thiazolidinecarboxylic Acid 3-Ethyl Ester], the IC50 is no more than 50 nM.

In the case of `CCOC(=O)N1C(c2ccncc2)SC[C@@H]1C(=O)N[C@@H](Cc1ccc(NC(=O)c2c(Cl)cccc2Cl)cc1)C(=O)O` (stereo partly drawn) [Example 283, (4S)-4-[[[(1S)-1-Carboxy-2-[4-[(2,6-dichlorobenzoyl)amino]phenyl]ethyl]amino]carbonyl]-2-(4-pyridinyl)-3-thiazolidinecarboxylic Acid 3-Ethyl Ester], the IC50 lay in the range of 50 to 750 nM.

As for `CCOC(=O)N1CSC[C@@H]1C(=O)N[C@@H](Cc1ccc(C(=O)Nc2c(Cl)cc(Cl)cc2Cl)cc1)C(=O)O` [Example 278, (4S)-4-[[[(1S)-1-Carboxy-2-[4-[[(2,4,6-trichlorophenyl)amino]carbonyl]phenyl]ethyl]amino]carbonyl]-3-thiazolidinecarboxylic Acid 3-Ethyl Ester], the IC50 is 50 to 750 nM.

For the compound `CCOC(=O)N1CSC[C@@H]1C(=O)N[C@@H](Cc1ccc(NC(=O)c2ccccc2C(F)(F)F)cc1)C(=O)O` [Example 274, (4S)-4-[[[(1S)-1-Carboxy-2-[4-[[2-(trifluoromethyl)benzoyl]amino]phenyl]ethyl]amino]carbonyl]-3-thiazolidinecarboxylic Acid 3-Ethyl Ester], the IC50 lay within 50 to 750 nM.

Turning to `CCOC(=O)N1CSC[C@@H]1C(=O)N[C@@H](Cc1ccc(NC(=O)c2cccnc2)cc1)C(=O)O` [Example 271, (4S)-4-[[[(1S)-1-Carboxy-2-[4-[(3-pyridinylcarbonyl)amino]phenyl]ethyl]amino]carbonyl]-3-thiazolidinecarboxylic Acid 3-Ethyl Ester], the IC50 is 50 to 750 nM.

Take `NC(=O)[C@H](Cc1ccc(OCc2c(Cl)cccc2Cl)cc1)NC(=O)[C@H]1CSCN1C(=O)OCCN1CCCC1` [Example 284]: the IC50 is 50 to 750 nM.

As for `O=C(Nc1ccc(C[C@H](NC(=O)C2CSC3COC(=O)N32)C(=O)O)cc1)c1c(Cl)cccc1Cl` (single isomer, unassigned) [Example 281, 4-[(2,6-Dichlorobenzoyl)amino]-N-[(tetrahydro-5-oxo-5H-thiazolo[3,2-c]oxazol-3-yl)carbonyl]-L-phenylalanine], the IC50 was in the range of 50 to 750 nM.

Turning to `CCOC(=O)N1CSC[C@@H]1C(=O)N[C@@H](Cc1ccc(NC(=O)c2ccccc2)cc1)C(=O)O` [Example 268, (4S)-4-[[[(1S)-1-Carboxy-2-[4-[(benzoyl)amino]phenyl]ethyl]amino]carbonyl]-3-thiazolidinecarboxylic Acid 3-Ethyl Ester], the IC50 is no less than 750 nM.

On to `O=C(O)[C@H](Cc1ccc(OCc2c(Cl)cccc2Cl)cc1)NC(=O)[C@H]1CSCN1C(=O)OC1CCOC1` (stereo partly drawn) [Example 285, (4S)-4-[[[(1S)-1-Carboxy-2-[4-[(2,6-dichlorophenyl)methoxy]phenyl]ethyl]amino]carbonyl]-3-thiazolidinecarboxylic Acid 3-(3-Tetrahydrofuranyl)ester], for which the IC50 lay in the range of 50 to 750 nM.

Turning to `CCOC(=O)N1CSCC1C(=O)N[C@@H](Cc1ccc(NC(=O)c2c(Cl)cccc2Cl)nc1)C(=O)O` (stereo in doubt) [Example 290, [S-(R*,R*)]-4-[[[1-Carboxy-2-[2-[(2,6-dichlorobenzoyl)amino]-5-pyridinyl]ethyl]amino]carbonyl]-3-thiazolidinecarboxylic Acid Ethyl Ester], the IC50 was no more than 50 nM.

`CCOC(=O)N1CSC[C@@H]1C(=O)N[C@@H](Cc1ccc(NC(=O)Nc2c(Cl)cccc2Cl)cc1)C(=O)O` [Example 277, (4S)-4-[[[(1S)-1-Carboxy-2-[4-[[[(2,6-dichlorophenyl)amino]carbonyl]amino]phenyl]ethyl]amino]carbonyl]-3-thiazolidinecarboxylic Acid 3-Ethyl Ester]: the IC50 was no less than 750 nM.

In the case of `NC(=O)[C@H](Cc1ccc(NC(=O)c2c(Cl)cccc2Cl)cc1)NC(=O)[C@H]1CSCN1C(=O)OCCN1CCOCC1` [Example 288, (4S)-4-[[[(1S)-2-Amino-1-[[4-[(2,6-dichlorobenzoyl)amino]phenyl]methyl]-2-oxoethyl]amino]carbonyl]-3-thiazolidinecarboxylic Acid 3-[2-(4-Morpholinyl)ethyl]ester], the IC50 is no less than 750 nM.

Take `CCOC(=O)N1CSC[C@@H]1C(=O)N[C@@H](Cc1ccc(NC(=O)c2ccc(C)cc2)cc1)C(=O)O` [Example 273, (4S)-4-[[[(1S)-1-Carboxy-2-[4-[(4-methylbenzoyl)amino]phenyl]ethyl]amino]carbonyl]-3-thiazolidinecarboxylic Acid 3-Ethyl Ester]: the IC50 was no less than 750 nM.

For the compound `O=C(Nc1ccc(C[C@H](NC(=O)C2CS[C@H]3CNC(=O)N23)C(=O)O)cc1)c1c(Cl)cccc1Cl` (stereo partly drawn) [Example 279, 4-[(2,6-Dichlorobenzoyl)amino]-N-[[(7aS)-hexahydro-5-oxoimidazo[5,1-b]thiazol-3-yl]carbonyl]-L-phenylalanine], the IC50 was 50 to 750 nM.

Consider `NC(=O)[C@H](Cc1ccc(OCc2c(Cl)cccc2Cl)cc1)NC(=O)[C@H]1CSCN1C(=O)OCCN1CCCCC1` [Example 286, (4S)-4-[[[(1S)-2-Amino-1-[[4-[(2,6-dichlorophenyl)methoxy]phenyl]methyl]-2-oxoethyl]amino]carbonyl]-3-thiazolidinecarboxylic Acid 3-[2-(1-Piperidinyl)ethyl]ester], for which the IC50 lay in the range of 50 to 750 nM.

`CCOC(=O)N1CSC[C@@H]1C(=O)N[C@@H](Cc1ccc(NS(=O)(=O)c2cc(Cl)ccc2Cl)cc1)C(=O)O` [Example 276, (4S)-4-[[[(1S)-1-Carboxy-2-[4-[[(2,5-dichlorophenyl)sulfonyl]amino]phenyl]ethyl]amino]carbonyl]-3-thiazolidinecarboxylic Acid 3-Ethyl Ester]: the IC50 was no less than 750 nM.

For the compound `CCOC(=O)N1CSC[C@@H]1C(=O)N[C@@H](Cc1ccc(NC(C)=O)cc1)C(=O)O` [Example 269, (4S)-4-[[[(1S)-1-Carboxy-2-[4-[(acetyl)amino]phenyl]ethyl]amino]carbonyl]-3-thiazolidinecarboxylic Acid 3-Ethyl Ester], the IC50 is no less than 750 nM.

For `CN1CCN(CCOC(=O)N2CSC[C@@H]2C(=O)N[C@@H](Cc2ccc(OCc3c(Cl)cccc3Cl)cc2)C(N)=O)CC1` [Example 287, (4S)-4-[[[(1S)-2-Amino-1-[[4-[(2,6-dichlorophenyl)methoxy]phenyl]methyl]-2-oxoethyl]amino]carbonyl]-3-thiazolidinecarboxylic Acid 3-[2-(4-Methyl-1-piperazinyl)ethyl]ester], the IC50 was in the range of 50 to 750 nM.

With `O=C(Nc1ccc(C[C@H](NC(=O)C2CSC3COC(=O)N32)C(=O)O)cc1)c1c(Cl)cccc1Cl` (single isomer, unassigned) [Example 282, 4-[(2,6-Dichlorobenzoyl)amino]-N-[(tetrahydro-5-oxo-5H-thiazolo[3,2-c]oxazol-3-yl)carbonyl]-L-phenylalanine], the IC50 was no more than 50 nM.

`CCOC(=O)N1CSC[C@@H]1C(=O)N[C@@H](Cc1ccc(NC(=O)c2ccc(OC)cc2)cc1)C(=O)O` [Example 272, (4S)-4-[[[(1S)-1-Carboxy-2-[4-[(4-methoxybenzoyl)amino]phenyl]ethyl]amino]carbonyl]-3-thiazolidinecarboxylic Acid 3-Ethyl Ester]: the IC50 lay in the range of 50 to 750 nM.

Turning to `O=C(Nc1ccc(C[C@H](NC(=O)C2CS[C@@H]3CNC(=O)N23)C(=O)O)cc1)c1c(Cl)cccc1Cl` (stereo partly drawn) [Example 280, 4-[(2,6-Dichlorobenzoyl)amino]-N-[[(7aR)-hexahydro-5-oxoimidazo[5,1-b]thiazol-3-yl]carbonyl]-L-phenylalanine], the IC50 lay within 50 to 750 nM.
